# According to PubChem BioAssay (NCI):
# Values joined by “and” are separate entries in the source; they are usually repeats but may differ in a detail not shown here. Identical values can stand only once.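 In this assay, cells in 96-well plates receive the compound at five concentrations for 48 hours. Endpoints are linearly interpolated between the surrounding concentrations. GI50 is the concentration that inhibits growth by half. Definition used: TGI = concentration required for complete inhibition of growth.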
# Assays:
# Experiment in all cases: NCI tumour cell line growth inhibition, 48 h
# HCC-2998 colon = system: HCC-2998 colon
# HCT-116 colon = system: HCT-116 colon
# LOX IMVI melanoma = system: LOX IMVI melanoma
# MALME-3M melanoma = system: MALME-3M melanoma
# NCI-H522 lung = system: NCI-H522 lung
# OVCAR-5 ovarian = system: OVCAR-5 ovarian
# OVCAR-8 ovarian = system: OVCAR-8 ovarian
# SR leukemia = system: SR leukemia
# UACC-257 melanoma = system: UACC-257 melanoma
# UACC-62 melanoma = system: UACC-62 melanoma
SMILES,TGI (HCC-2998 colon),TGI (HCT-116 colon),TGI (LOX IMVI melanoma),TGI (MALME-3M melanoma),TGI (NCI-H522 lung),TGI (OVCAR-5 ovarian),TGI (OVCAR-8 ovarian),TGI (SR leukemia),TGI (UACC-257 melanoma),TGI (UACC-62 melanoma),GI50 (HCC-2998 colon),GI50 (HCT-116 colon),GI50 (LOX IMVI melanoma),GI50 (MALME-3M melanoma),GI50 (NCI-H522 lung),GI50 (OVCAR-5 ovarian),GI50 (OVCAR-8 ovarian),GI50 (SR leukemia),GI50 (UACC-257 melanoma),GI50 (UACC-62 melanoma)
Nc1ccc(S(=O)(=O)Nc2nc3ccccc3nc2N2CCCCCC2)cc1,33.4 µM,33.2 µM,33.5 µM,85.9 µM,> 100 µM,> 100 µM,> 100 µM,> 100 µM,> 100 µM,39.8 µM,–,–,–,–,–,–,–,–,–,–
O=C(Cc1ccc(Cl)c(Cl)c1)NCC1(N2CCCCC2)CCCCC1,39.1 µM,> 100 µM,> 100 µM,47.2 µM,> 100 µM,> 100 µM,> 100 µM,> 100 µM,36.7 µM,42 µM,–,–,–,–,–,–,–,–,–,–
COc1cc(C2C3=C(COC3=O)Oc3cc4c(cc32)OCO4)cc(OC)c1O (stereo not drawn),0.121 µM,0.208 µM,19 µM,39.5 µM,< 0.088 µM,39.4 µM,1.05 µM,> 100 µM,> 61.7 µM,2.69 µM,–,–,–,–,–,–,–,–,–,–
NNC(=O)C1(NC(=O)c2ccccc2)C(c2ccccc2)C(c2ccccc2)=NN1c1ccccc1 (stereo not drawn),> 100 µM,> 100 µM,> 100 µM,> 100 µM,> 100 µM,> 100 µM,> 100 µM,65.6 µM,> 100 µM,56.9 µM,–,–,–,–,–,–,–,–,–,–
COc1ccc(-c2oc3cc(O)cc(O)c3c(=O)c2OC)cc1,62.9 µM,> 100 µM,> 100 µM,> 100 µM,9.7 µM,> 100 µM,> 100 µM,> 100 µM,> 100 µM,> 100 µM,–,–,–,–,–,–,–,–,–,–
CN(C)CCn1c(CO)nc2c1c(=O)n(C)c(=O)n2C,> 100 µM,> 100 µM,> 100 µM,> 100 µM,> 100 µM,> 100 µM,> 100 µM,> 100 µM,> 100 µM,> 100 µM,–,–,–,–,–,–,–,–,–,–
CN1C(=O)C(O)C[C@@H]1c1ccccc1 (stereo partly drawn),> 100 µM,> 100 µM,> 100 µM,> 100 µM,> 100 µM,> 100 µM,> 100 µM,> 100 µM,> 100 µM,> 100 µM,–,–,–,–,–,–,–,–,–,–
CC(C)=CCNc1nc(Cl)nc2nc[nH]c12,> 100 µM,69.8 µM,> 100 µM,> 100 µM,> 100 µM,> 100 µM,> 100 µM,> 100 µM,> 100 µM,> 100 µM,–,–,–,–,–,–,–,–,–,–
CC(C)C(C/C=C1\CC(CO)(COC(=O)C2CCCCC2)OC1=O)C(C)C (stereo not drawn),65.1 µM,36.5 µM,32.3 µM,35.5 µM,31.8 µM,41.8 µM,35.8 µM,> 100 µM,84.1 µM,> 100 µM,–,–,–,–,–,–,–,–,–,–
O=C(c1cccs1)N1CCN(C(=O)c2cccs2)C1=S,22 µM,21.7 µM,10.8 µM,28.7 µM,35.8 µM,30.3 µM,21.4 µM,> 100 µM,22.9 µM,16.6 µM,–,–,–,–,–,–,–,–,–,–
CCN(CC)C(=S)SS(=O)(=O)c1cccc(N)c1,> 100 µM,> 100 µM,> 100 µM,> 100 µM,> 100 µM,> 100 µM,> 100 µM,> 100 µM,> 100 µM,> 100 µM,–,–,–,–,–,–,–,–,–,–
O=C(O)COc1cc(-c2ccccc2)nc2cc(F)ccc12,> 100 µM,> 100 µM,> 100 µM,> 100 µM,> 100 µM,> 100 µM,> 100 µM,> 100 µM,> 100 µM,> 100 µM,–,–,–,–,–,–,–,–,–,–
Cc1cc(C)c2c(c1)C(=O)/C(=C/c1ccccc1C(=O)O)C2,> 100 µM,> 100 µM,> 100 µM,> 100 µM,> 100 µM,–,> 100 µM,> 100 µM,> 100 µM,> 100 µM,–,–,–,–,–,–,–,–,–,–
CN(C)CCCNc1ccc2nnn3c4ccc(O)cc4c(=O)c1c23,15.2 µM,16 µM,4.12 µM,23.1 µM,19.8 µM,23.2 µM,17.6 µM,3.61 µM,29.8 µM,23.7 µM,–,–,–,–,–,–,–,–,–,–
C/C(=N\NC(=S)N(C)C)c1cccnn1,> 100 µM,> 25.9 µM,> 51.2 µM,> 70.5 µM,> 100 µM,> 57.3 µM,> 100 µM,> 20.3 µM,2.98 µM,4.89 µM,–,–,–,–,–,–,–,–,–,–
O=C1OC[C@H]2[C@@H]1[C@H]1O[C@@H]2C2=C(CCC2)C1=O,> 100 µM,> 100 µM,> 100 µM,> 100 µM,> 100 µM,> 100 µM,> 100 µM,> 100 µM,> 100 µM,> 100 µM,–,–,–,–,–,–,–,–,–,–
O=c1[nH]n(Cc2ccccc2)c2ccc([N+](=O)[O-])cc12,> 100 µM,> 100 µM,> 100 µM,> 100 µM,> 100 µM,> 100 µM,> 100 µM,> 100 µM,> 100 µM,> 100 µM,–,–,–,–,–,–,–,–,–,–
CCCSc1ccc2[nH]c(N3C(=O)/C(=C/c4ccccc4)N=C3c3ccccc3)cc2c1,44.6 µM,> 50 µM,> 50 µM,> 50 µM,36 µM,> 50 µM,> 50 µM,> 50 µM,> 50 µM,> 50 µM,–,–,–,–,–,–,–,–,–,–

SMILES,TGI (HCC-2998 colon),TGI (HCT-116 colon),TGI (LOX IMVI melanoma),TGI (MALME-3M melanoma),TGI (NCI-H522 lung),TGI (OVCAR-5 ovarian),TGI (OVCAR-8 ovarian),TGI (SR leukemia),TGI (UACC-257 melanoma),TGI (UACC-62 melanoma),GI50 (HCC-2998 colon),GI50 (HCT-116 colon),GI50 (LOX IMVI melanoma),GI50 (MALME-3M melanoma),GI50 (NCI-H522 lung),GI50 (OVCAR-5 ovarian),GI50 (OVCAR-8 ovarian),GI50 (SR leukemia),GI50 (UACC-257 melanoma),GI50 (UACC-62 melanoma)
Cc1cc(OC(=O)NCn2cc(-c3ccccc3)nn2)ccc1Cl,39.2 µM,> 100 µM,> 100 µM,> 100 µM,> 100 µM,> 100 µM,> 100 µM,> 100 µM,> 100 µM,–,–,–,–,–,–,–,–,–,–,–
O=C1NC(=O)C(C(CC(=O)c2ccc(Cl)cc2)c2ccc(Cl)cc2)C(=O)N1 (stereo not drawn),> 100 µM,> 100 µM,> 100 µM,7.63 µM,> 100 µM,> 100 µM,> 100 µM,> 100 µM,> 100 µM,> 100 µM,–,–,–,–,–,–,–,–,–,–
COc1ccc2[nH]c(O)c(/C=c3/cc4c(c(-c5ccc(F)c(OC)c5)n3)=Nc3ccccc3-4)c2c1,4.62 µM,3.37 µM,3.29 µM,3.92 µM,4.14 µM,10.8 µM,11.8 µM,6.96 µM,8.86 µM,3.16 µM,2.13 µM,1.82 µM,1.72 µM,2.03 µM,1.81 µM,3.56 µM,3.22 µM,1.86 µM,2.81 µM,1.7 µM
C/C(=N\Nc1nc2ccccc2n1C)c1cc2ccccc2cn1,41.9 µM,5.83 µM,4.33 µM,3.03 µM,4.67 µM,21.6 µM,4.24 µM,> 100 µM,7.26 µM,0.94 µM,–,–,–,–,–,–,–,–,–,–
CN1CC2=C(NC(=S)NC2c2ccccc2)/C(=C/c2ccccc2)C1 (stereo not drawn),> 100 µM,63.3 µM,> 100 µM,> 100 µM,> 100 µM,> 100 µM,> 10 µM,> 100 µM,> 100 µM,> 100 µM,–,–,–,–,–,–,–,–,–,–
CN(C)Cc1cc(C(=O)/C=C/c2ccccc2)cc(CN(C)C)c1O,64.8 µM,87.8 µM,17.7 µM,44.9 µM,40.8 µM,> 100 µM,99.8 µM,59.1 µM,27.9 µM,–,–,–,–,–,–,–,–,–,–,–
CC1=C2C(=CO[C@H](C)[C@H]2C)C(=O)C(C(=O)O)=C1O,42.6 µM and 57.9 µM,82.2 µM and 78.5 µM,44.7 µM and 53.8 µM,54.4 µM and 115 µM,36.4 µM and 34.4 µM,73 µM and 128 µM,43.3 µM and 35.2 µM,66.7 µM,> 87.8 µM,85.6 µM and 40.4 µM,23.7 µM,–,20.1 µM,21 µM,18.5 µM,29.5 µM,19.8 µM,–,–,–
C=C(C)[C@H]1C2=CC(C)=C(O2)[C@@H](O[C@@H]2c3oc(cc3C)[C@H](C(=C)C)[C@H]3C=C(CC[C@H]2C(=C)C)C(=O)O3)[C@H](C(=C)C)CCC2=C[C@H]1OC2=O,> 100 µM,> 100 µM,> 100 µM,> 100 µM,> 100 µM,> 100 µM,> 100 µM,> 100 µM,> 100 µM,> 100 µM,–,–,–,–,–,–,–,–,–,–
CC(C)/C(Cl)=N\OC(NC(=O)P(=O)(c1ccccc1)c1ccccc1)(C(F)(F)F)C(F)(F)F,33.4 µM,21.5 µM,29.6 µM,20.9 µM,–,48.3 µM,32 µM,59 µM,42.2 µM,49 µM,–,–,–,–,–,–,–,–,–,–
N#Cc1cc2c(n(C3OC(CO)C(O)C(O)C3O)c1=S)CCCCCC2 (stereo not drawn),> 100 µM,> 100 µM,> 100 µM,> 100 µM,> 100 µM,> 100 µM,> 100 µM,> 100 µM,> 100 µM,> 100 µM,–,–,–,–,–,–,–,–,–,–
O=c1oc(C(C(F)(F)F)C(F)(F)F)nc2ccccc12,> 100 µM,> 100 µM,> 100 µM,> 100 µM,> 100 µM,> 100 µM,> 100 µM,> 100 µM,> 100 µM,–,–,–,–,–,–,–,–,–,–,–
CCOC(=O)c1cc(C)nc2c1c(=O)n(-c1ccccc1)c(=O)n2CCCCN1CCN(c2ccccc2)CC1,> 100 µM,> 100 µM,> 100 µM,> 100 µM,> 100 µM,> 100 µM,> 100 µM,48.4 µM,99.8 µM,> 100 µM,–,–,–,–,–,–,–,–,–,–
CC(C)(C)OC(=O)NCC(CNC(=O)OC(C)(C)C)c1nc(C(N)=O)cs1,> 100 µM,> 100 µM,> 100 µM,> 100 µM,–,> 100 µM,> 100 µM,> 100 µM,> 100 µM,> 100 µM,–,–,–,–,–,–,–,–,–,–
CC(=O)NC1C(OCc2ccccc2)OC(CO)C(O)C1OC(C)C(=O)NC(C(=O)NC(CCC(=O)NCCCCNc1c2ccccc2nc2cccc([N+](=O)[O-])c12)C(N)=O)C(C)C (stereo not drawn),3.47 µM,10.5 µM,4.68 µM,4.08 µM,0.511 µM,19.8 µM,9.62 µM,2.61 µM,15.9 µM,5.03 µM,–,–,–,–,–,–,–,–,–,–
O=C1c2c(O)cccc2-c2nn(CCNCCO)c3ccc(NCCNCCO)c1c23,1 µM,2.75 µM,1.68 µM,1.12 µM,0.164 µM,2.85 µM,4.24 µM,3 µM,5.69 µM,0.344 µM,–,–,–,–,–,–,–,–,–,–
Cc1nc(N)c(N2CCN(CN)CC2)c(=O)[nH]1,> 100 µM,> 100 µM,> 100 µM,> 100 µM,> 100 µM,> 100 µM,> 100 µM,> 100 µM,> 100 µM,–,–,–,–,–,–,–,–,–,–,–
Cc1ccc(S(=O)CC(CF)OCn2cc(C)c(=O)[nH]c2=O)cc1 (stereo not drawn),> 100 µM,> 100 µM,> 100 µM,> 100 µM,> 100 µM,> 100 µM,> 100 µM,> 100 µM,–,> 100 µM,–,–,–,–,–,–,–,–,–,–
